Experimental data reported in US6479435B1, “Diaryl ethers and processes for their preparation and herbicidal and desiccant compositions containing them” (ISK Americas Incorporated, priority 1997, dated 2002).

Tests used:
Assay type in all cases: in vivo
[1] = tested on: Johnsongrass (Sorghum halepense, SORHA); experiment: Pre-emerge greenhouse herbicide test, phytotoxicity rating; conditions: 14 days after application, rating scale 0-100
In short: (§1)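 Seeds sown in sandy loam mix one day before track-sprayer application of compounds in acetone at 125–1000 g ai/ha (187 l/ha), then surface-watered to incorporate and bottom-watered. Visual rating 14 days after application on a 0–100 scale (0 = no damage, 100 = all plants dead).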

[2] = tested on: barnyardgrass (Echinochloa crusgalli, ECHCG); experiment: as above; conditions: 14 days after application, rating scale 0-100
In short: as §1

[3] = tested on: common ragweed (Ambrosia artemisiifolia L., AMBEL); experiment: as above; conditions: 14 days after application, rating scale 0-100
In short: as §1

[4] = tested on: green foxtail (Setaria viridis, SETVI); experiment: as above; conditions: 14 days after application, rating scale 0-100
In short: as §1

[5] = tested on: ivyleaf morningglory (Ipomoea hederacea, IPOHE); experiment: as above; conditions: 14 days after application, rating scale 0-100
In short: as §1

[6] = tested on: lambsquarters (Chenopodium album, CHEAL); experiment: as above; conditions: 14 days after application, rating scale 0-100
In short: as §1

[7] = tested on: large crabgrass (Digitaria sanguinalis, DIGSA); experiment: as above; conditions: 14 days after application, rating scale 0-100
In short: as §1

[8] = tested on: redroot pigweed (Amaranthus retroflexus, AMARE); experiment: as above; conditions: 14 days after application, rating scale 0-100
In short: as §1

[9] = tested on: sicklepod (Cassia obtusifolia, CASOB); experiment: as above; conditions: 14 days after application, rating scale 0-100
In short: as §1

[10] = tested on: velvetleaf (Abutilon theophrasti, ABUTH); experiment: as above; conditions: 14 days after application, rating scale 0-100
In short: as §1

[11] = tested on: field corn (Zea mays L., var. Dekalb 535, CORN); experiment: Pre-emerge greenhouse test, crop damage rating; conditions: 14 days after application, rating scale 0-100
In short: as §1

[12] = tested on: upland rice (Oryza sp., var.Tebonnet, RICE); experiment: Pre-emerge greenhouse test, crop damage rating; conditions: 14 days after application, rating scale 0-100
In short: as §1

[13] = tested on: soybean (Glycine max L., var. Pella 86, SOY); experiment: Pre-emerge greenhouse test, crop damage rating; conditions: 14 days after application, rating scale 0-100
In short: as §1

[14] = tested on: common ragweed (Ambrosia artemisiifolia L., AMBEL); experiment: Post-emerge greenhouse herbicide test, phytotoxicity rating; conditions: 14 days after application
In short: (§2)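 Compounds in acetone with 0.25% v/v non-ionic surfactant were track-sprayed at 187 l/ha over plants at the 2-3 leaf stage, at 63 to 1000 g ai/ha. Pots were bottom-watered. Injury was scored visually 14 days later on a 0-100 scale, where 0 is no damage and 100 is complete plant death.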

[15] = tested on: Johnsongrass (Sorghum halepense, SORHA); experiment: as above; conditions: 14 days after application
In short: as §2

[16] = tested on: barnyardgrass (Echinochloa crusgalli, ECHCG); experiment: as above; conditions: 14 days after application
In short: as §2

[17] = tested on: green foxtail (Setaria viridis, SETVI); experiment: as above; conditions: 14 days after application
In short: as §2

[18] = tested on: ivyleaf morningglory (Ipomoea hederacea, IPOHE); experiment: as above; conditions: 14 days after application
In short: as §2

[19] = tested on: lambsquarters (Chenopodium album, CHEAL); experiment: as above; conditions: 14 days after application
In short: as §2

[20] = tested on: large crabgrass (Digitaria sanguinalis, DIGSA); experiment: as above; conditions: 14 days after application
In short: as §2

[21] = tested on: redroot pigweed (Amaranthus retroflexus, AMARE); experiment: as above; conditions: 14 days after application
In short: as §2

[22] = tested on: sicklepod (Cassia obtusifolia, CASOB); experiment: as above; conditions: 14 days after application
In short: as §2

[23] = tested on: velvetleaf (Abutilon theophrasti, ABUTH); experiment: as above; conditions: 14 days after application
In short: as §2

[24] = tested on: field corn (Zea mays L., var. Dekalb 535, CORN); experiment: Post-emerge greenhouse test, crop damage rating; conditions: 14 days after application
In short: as §2

[25] = tested on: upland rice (Oryza sp., var.Tebonnet, RICE); experiment: Post-emerge greenhouse test, crop damage rating; conditions: 14 days after application
In short: as §2

[26] = tested on: soybean (Glycine max L., var. Pella 86, SOY); experiment: Post-emerge greenhouse test, crop damage rating; conditions: 14 days after application
In short: as §2

## O=c1n(-c2cc(Oc3ccccc3[N+](=O)[O-])c(Cl)cc2F)c(=S)n2n1CCCC2 [Compound 8-6]
[1]; 125 g ai/ha
  phytotoxicity rating SORHA: 20
[1]; 500 g ai/ha
  phytotoxicity rating SORHA: 50
[2]; 125 g ai/ha
  phytotoxicity rating ECHCG: 20
[2]; 500 g ai/ha
  phytotoxicity rating ECHCG: 50
[3]; 125 g ai/ha
  phytotoxicity rating AMBEL: 40
[3]; 500 g ai/ha
  phytotoxicity rating AMBEL: 100
[4]; 125 g ai/ha
  phytotoxicity rating SETVI: 95
[4]; 500 g ai/ha
  phytotoxicity rating SETVI: 100
[5]; 125 g ai/ha
  phytotoxicity rating IPOHE: 50
[5]; 500 g ai/ha
  phytotoxicity rating IPOHE: 90
[6]; 125 g ai/ha
  phytotoxicity rating CHEAL: 100
[6]; 500 g ai/ha
  phytotoxicity rating CHEAL: 100
[7]; 125 g ai/ha
  phytotoxicity rating DIGSA: 40
[7]; 500 g ai/ha
  phytotoxicity rating DIGSA: 100
[8]; 125 g ai/ha
  phytotoxicity rating AMARE: 100
[8]; 500 g ai/ha
  phytotoxicity rating AMARE: 100
[9]; 125 g ai/ha
  phytotoxicity rating CASOB: 100
[9]; 500 g ai/ha
  phytotoxicity rating CASOB: 95
[10]; 125 g ai/ha
  phytotoxicity rating ABUTH: 100
[10]; 500 g ai/ha
  phytotoxicity rating ABUTH: 100
[11]; 125 g ai/ha
  crop damage rating CORN: 0
[11]; 500 g ai/ha
  crop damage rating CORN: 0
[12]; 125 g ai/ha
  crop damage rating RICE: 10
[12]; 500 g ai/ha
  crop damage rating RICE: 40
[13]; 125 g ai/ha
  crop damage rating SOY: 20
[13]; 500 g ai/ha
  crop damage rating SOY: 40
[14]; 63 g al/ha
  AMBEL phytotoxicity rating (0-100): 60
[14]; 500 g al/ha
  AMBEL phytotoxicity rating (0-100): 90
[15]; 63 g al/ha
  SORHA phytotoxicity rating (0-100): 0
[15]; 500 g al/ha
  SORHA phytotoxicity rating (0-100): 30
[16]; 63 g al/ha
  ECHCG phytotoxicity rating (0-100): 10
[16]; 500 g al/ha
  ECHCG phytotoxicity rating (0-100): 30
[17]; 63 g al/ha
  SETVI phytotoxicity rating (0-100): 30
[17]; 500 g al/ha
  SETVI phytotoxicity rating (0-100): 90
[18]; 63 g al/ha
  IPOHE phytotoxicity rating (0-100): 90
[18]; 500 g al/ha
  IPOHE phytotoxicity rating (0-100): 100
[19]; 63 g al/ha
  CHEAL phytotoxicity rating (0-100): 90
[19]; 500 g al/ha
  CHEAL phytotoxicity rating (0-100): 99
[20]; 63 g al/ha
  DIGSA phytotoxicity rating (0-100): 0
[20]; 500 g al/ha
  DIGSA phytotoxicity rating (0-100): 30
[21]; 63 g al/ha
  AMARE phytotoxicity rating (0-100): 100
[21]; 500 g al/ha
  AMARE phytotoxicity rating (0-100): 100
[22]; 63 g al/ha
  CASOB phytotoxicity rating (0-100): 60
[22]; 500 g al/ha
  CASOB phytotoxicity rating (0-100): 100
[23]; 63 g al/ha
  ABUTH phytotoxicity rating (0-100): 100
[23]; 500 g al/ha
  ABUTH phytotoxicity rating (0-100): 100
[24]; 63 g al/ha
  CORN crop damage rating (0-100): 5
[24]; 500 g al/ha
  CORN crop damage rating (0-100): 20
[25]; 63 g al/ha
  RICE crop damage rating (0-100): 5
[25]; 500 g al/ha
  RICE crop damage rating (0-100): 50
[26]; 63 g al/ha
  SOY crop damage rating (0-100): 70
[26]; 500 g al/ha
  SOY crop damage rating (0-100): 90

## O=c1n(-c2cc(Oc3ccc([N+](=O)[O-])cc3)c(Cl)cc2F)c(=S)n2n1CCCC2 [Compound 8-8]
[1]; 125 g ai/ha
  phytotoxicity rating SORHA: 30
[1]; 500 g ai/ha
  phytotoxicity rating SORHA: 30
[2]; 125 g ai/ha
  phytotoxicity rating ECHCG: 0
[2]; 500 g ai/ha
  phytotoxicity rating ECHCG: 20
[3]; 125 g ai/ha
  phytotoxicity rating AMBEL: 0
[3]; 500 g ai/ha
  phytotoxicity rating AMBEL: 20
[4]; 125 g ai/ha
  phytotoxicity rating SETVI: 60
[4]; 500 g ai/ha
  phytotoxicity rating SETVI: 95
[5]; 125 g ai/ha
  phytotoxicity rating IPOHE: 0
[5]; 500 g ai/ha
  phytotoxicity rating IPOHE: 10
[6]; 125 g ai/ha
  phytotoxicity rating CHEAL: 0
[6]; 500 g ai/ha
  phytotoxicity rating CHEAL: 10
[7]; 125 g ai/ha
  phytotoxicity rating DIGSA: 40
[7]; 500 g ai/ha
  phytotoxicity rating DIGSA: 40
[8]; 125 g ai/ha
  phytotoxicity rating AMARE: 100
[8]; 500 g ai/ha
  phytotoxicity rating AMARE: 100
[9]; 125 g ai/ha
  phytotoxicity rating CASOB: 0
[9]; 500 g ai/ha
  phytotoxicity rating CASOB: 80
[10]; 125 g ai/ha
  phytotoxicity rating ABUTH: 90
[10]; 500 g ai/ha
  phytotoxicity rating ABUTH: 100
[11]; 125 g ai/ha
  crop damage rating CORN: 5
[11]; 500 g ai/ha
  crop damage rating CORN: 0
[12]; 125 g ai/ha
  crop damage rating RICE: 0
[12]; 500 g ai/ha
  crop damage rating RICE: 0
[13]; 125 g ai/ha
  crop damage rating SOY: 0
[13]; 500 g ai/ha
  crop damage rating SOY: 20
[14]; 63 g al/ha
  AMBEL phytotoxicity rating (0-100): 30
[14]; 500 g al/ha
  AMBEL phytotoxicity rating (0-100): 40
[15]; 63 g al/ha
  SORHA phytotoxicity rating (0-100): 10
[15]; 500 g al/ha
  SORHA phytotoxicity rating (0-100): 0
[16]; 63 g al/ha
  ECHCG phytotoxicity rating (0-100): 10
[16]; 500 g al/ha
  ECHCG phytotoxicity rating (0-100): 0
[17]; 63 g al/ha
  SETVI phytotoxicity rating (0-100): 20
[17]; 500 g al/ha
  SETVI phytotoxicity rating (0-100): 30
[18]; 63 g al/ha
  IPOHE phytotoxicity rating (0-100): 90
[18]; 500 g al/ha
  IPOHE phytotoxicity rating (0-100): 50
[19]; 63 g al/ha
  CHEAL phytotoxicity rating (0-100): 99
[19]; 500 g al/ha
  CHEAL phytotoxicity rating (0-100): 100
[20]; 63 g al/ha
  DIGSA phytotoxicity rating (0-100): 0
[20]; 500 g al/ha
  DIGSA phytotoxicity rating (0-100): 0
[21]; 63 g al/ha
  AMARE phytotoxicity rating (0-100): 95
[21]; 500 g al/ha
  AMARE phytotoxicity rating (0-100): 100
[22]; 63 g al/ha
  CASOB phytotoxicity rating (0-100): 40
[22]; 500 g al/ha
  CASOB phytotoxicity rating (0-100): 40
[23]; 63 g al/ha
  ABUTH phytotoxicity rating (0-100): 95
[23]; 500 g al/ha
  ABUTH phytotoxicity rating (0-100): 100
[24]; 63 g al/ha
  CORN crop damage rating (0-100): 10
[24]; 500 g al/ha
  CORN crop damage rating (0-100): 10
[25]; 63 g al/ha
  RICE crop damage rating (0-100): 0
[25]; 500 g al/ha
  RICE crop damage rating (0-100): 10
[26]; 63 g al/ha
  SOY crop damage rating (0-100): 25
[26]; 500 g al/ha
  SOY crop damage rating (0-100): 75
